Results: BindingDB's records for doi:10.1021/jm00013a009 (Sandoz Pharma, 1995)

Assay: Compound was evaluated for the binding affinity at 5- HT1A receptor

With `N=C(N)NN=Cc1c[nH]c2ccc(O)cc12` [(2E)-2-[(5-hydroxy-1H-indol-3-yl)methylene]hydrazinecarboximidamide] the Ki was 63 nM.
